In ChEMBL document CHEMBL4011590, “Structure-activity relationship studies on 3,5-dinitrophenyl tetrazoles as antitubercular agents” (Eur J Med Chem, 2017):
≈ marks a conversion by molar mass, not a printed value.

Tests used:
Candida tropicalis [1] = experiment: Antifungal activity against Candida tropicalis 156 after 24 hrs by broth microdilution method; assay type: functional; settings: Candida tropicalis, 156, 24 h
Staphylococcus aureus [2] = experiment: Antibacterial activity against Staphylococcus aureus ATCC 6538 after 24 hrs by broth microdilution method; assay type: functional; settings: ATCC 6538, 24 h
[3] = test system: Trichophyton mentagrophytes; experiment: Antifungal activity against Trichophyton mentagrophytes 445 after 120 hrs by broth microdilution method; assay type: functional; settings: Trichophyton mentagrophytes, 445, 120 h
CHO-K1 = experiment: Cytotoxicity against CHOK1 cells after 24 hrs by MTT assay; assay type: cell-based; settings: Cricetulus griseus, CHO-K1, 24 h
Candida tropicalis [4] = experiment: Antifungal activity against Candida tropicalis 156 after 48 hrs by broth microdilution method; assay type: functional; settings: Candida tropicalis, 156, 48 h
Nakaseomyces glabratus [5] = experiment: Antifungal activity against Candida glabrata 20/I after 24 hrs by broth microdilution method; assay type: functional
Mycobacterium kansasii [6] = experiment: Antimycobacterial activity against Mycobacterium kansasii CNCTC My 235/80 after 7 days by micromethod; assay type: functional; settings: CNCTC My 235/80, 168 h
Mycobacterium kansasii [7] = experiment: Antimycobacterial activity against Mycobacterium kansasii isolate 6509/96 after 21 days by micromethod; assay type: functional; settings: isolate 6509/96, 504 h
Candida albicans [8] = experiment: Antifungal activity against Candida albicans ATCC 44859 after 24 hrs by broth microdilution method; assay type: functional; settings: ATCC 44859, 24 h
Escherichia coli [9] = experiment: Antibacterial activity against Escherichia coli ATCC 8739 after 48 hrs by broth microdilution method; assay type: functional; settings: ATCC 8739, 48 h
Staphylococcus aureus [10] = experiment: Antibacterial activity against methicillin-resistant Staphylococcus aureus HK5996/08 after 24 hrs by broth microdilution method; assay type: functional; settings: HK5996/08, 24 h
Staphylococcus aureus [11] = experiment: Antibacterial activity against methicillin-resistant Staphylococcus aureus HK5996/08 after 48 hrs by broth microdilution method; assay type: functional; settings: HK5996/08, 48 h
Aspergillus fumigatus [12] = experiment: Antifungal activity against Aspergillus fumigatus 231 after 48 hrs by broth microdilution method; assay type: functional; settings: Aspergillus fumigatus, 231, 48 h
Klebsiella pneumoniae [13] = experiment: Antibacterial activity against Klebsiella pneumoniae HK11750/08 after 24 hrs by broth microdilution method; assay type: functional; settings: HK11750/08, 24 h
Lichtheimia corymbifera [14] = experiment: Antifungal activity against Absidia corymbifera 272 after 24 hrs by broth microdilution method; assay type: functional; settings: Lichtheimia corymbifera, 272, 24 h
Mycobacterium kansasii [15] = experiment: Antimycobacterial activity against Mycobacterium kansasii isolate 6509/96 after 7 days by micromethod; assay type: functional; settings: isolate 6509/96, 168 h
Staphylococcus aureus [16] = experiment: Antibacterial activity against Staphylococcus aureus ATCC 6538 after 48 hrs by broth microdilution method; assay type: functional; settings: ATCC 6538, 48 h
Mycobacterium kansasii [17] = experiment: Antimycobacterial activity against Mycobacterium kansasii CNCTC My 235/80 after 21 days by micromethod; assay type: functional; settings: CNCTC My 235/80, 504 h
Candida albicans [18] = experiment: Antifungal activity against Candida albicans ATCC 44859 after 48 hrs by broth microdilution method; assay type: functional; settings: ATCC 44859, 48 h
Klebsiella pneumoniae [19] = experiment: Antibacterial activity against extended spectrum beta-lactamase producing Klebsiella pneumoniae HK14368/08 after 48 hrs by broth microdilution method; assay type: functional; settings: HK14368/08, 48 h
Lichtheimia corymbifera [20] = experiment: Antifungal activity against Absidia corymbifera 272 after 48 hrs by broth microdilution method; assay type: functional; settings: Lichtheimia corymbifera, 272, 48 h
[21] = test system: Mycobacterium tuberculosis; experiment: Antimycobacterial activity against Mycobacterium tuberculosis H37Rv CNCTC My 331/88 after 14 days by micromethod; assay type: functional; settings: H37Rv CNCTC My 331/88, 336 h
Enterococcus sp. [22] = experiment: Antibacterial activity against Enterococcus sp. HK14365/08 after 24 hrs by broth microdilution method; assay type: functional; settings: HK14365/08, 24 h
Nakaseomyces glabratus [23] = experiment: Antifungal activity against Candida glabrata 20/I after 48 hrs by broth microdilution method; assay type: functional
Mycobacterium kansasii [24] = experiment: Antimycobacterial activity against Mycobacterium kansasii CNCTC My 235/80 after 14 days by micromethod; assay type: functional; settings: CNCTC My 235/80, 336 h
Escherichia coli [25] = experiment: Antibacterial activity against Escherichia coli ATCC 8739 after 24 hrs by broth microdilution method; assay type: functional; settings: ATCC 8739, 24 h
Pichia kudriavzevii [26] = experiment: Antifungal activity against Candida krusei E28 after 48 hrs by broth microdilution method; assay type: functional; settings: E28, 48 h
Pseudomonas aeruginosa [27] = experiment: Antibacterial activity against Pseudomonas aeruginosa ATCC 9027 after 24 hrs by broth microdilution method; assay type: functional; settings: ATCC 9027, 24 h
[28] = test system: Trichophyton mentagrophytes; experiment: Antifungal activity against Trichophyton mentagrophytes 445 after 72 hrs by broth microdilution method; assay type: functional; settings: Trichophyton mentagrophytes, 445, 72 h
Enterococcus sp. [29] = experiment: Antibacterial activity against Enterococcus sp. HK14365/08 after 48 hrs by broth microdilution method; assay type: functional; settings: HK14365/08, 48 h
[30] = test system: Staphylococcus epidermidis; experiment: Antibacterial activity against Staphylococcus epidermidis HK6966/08 after 48 hrs by broth microdilution method; assay type: functional; settings: HK6966/08, 48 h
Klebsiella pneumoniae [31] = experiment: Antibacterial activity against Klebsiella pneumoniae HK11750/08 after 48 hrs by broth microdilution method; assay type: functional; settings: HK11750/08, 48 h
Trichosporon asahii [32] = experiment: Antifungal activity against Trichosporon asahii 1188 after 48 hrs by broth microdilution method; assay type: functional; settings: Trichosporon asahii, 1188, 48 h
Mycobacterium avium [33] = experiment: Antimycobacterial activity against Mycobacterium avium CNCTC My 330/80 after 14 days by micromethod; assay type: functional; settings: CNCTC My 330/80, 336 h
Pseudomonas aeruginosa [34] = experiment: Antibacterial activity against Pseudomonas aeruginosa ATCC 9027 after 48 hrs by broth microdilution method; assay type: functional; settings: ATCC 9027, 48 h
Klebsiella pneumoniae [35] = experiment: Antibacterial activity against extended spectrum beta-lactamase producing Klebsiella pneumoniae HK14368/08 after 24 hrs by broth microdilution method; assay type: functional; settings: HK14368/08, 24 h
[36] = test system: Mycobacterium tuberculosis; experiment: Antimycobacterial activity against Mycobacterium tuberculosis H37Rv CNCTC My 331/88 after 21 days by micromethod; assay type: functional; settings: H37Rv CNCTC My 331/88, 504 h
Mycobacterium kansasii [37] = experiment: Antimycobacterial activity against Mycobacterium kansasii isolate 6509/96 after 14 days by micromethod; assay type: functional; settings: isolate 6509/96, 336 h
Mycobacterium avium [38] = experiment: Antimycobacterial activity against Mycobacterium avium CNCTC My 330/80 after 21 days by micromethod; assay type: functional; settings: CNCTC My 330/80, 504 h
Trichosporon asahii [39] = experiment: Antifungal activity against Trichosporon asahii 1188 after 24 hrs by broth microdilution method; assay type: functional; settings: Trichosporon asahii, 1188, 24 h
Pichia kudriavzevii [40] = experiment: Antifungal activity against Candida krusei E28 after 24 hrs by broth microdilution method; assay type: functional; settings: E28, 24 h
[41] = test system: Staphylococcus epidermidis; experiment: Antibacterial activity against Staphylococcus epidermidis HK6966/08 after 24 hrs by broth microdilution method; assay type: functional; settings: HK6966/08, 24 h
Aspergillus fumigatus [42] = experiment: Antifungal activity against Aspergillus fumigatus 231 after 24 hrs by broth microdilution method; assay type: functional; settings: Aspergillus fumigatus, 231, 24 h

For `O=[N+]([O-])c1cc(-c2nnn(Cc3ccc(Br)cc3)n2)cc([N+](=O)[O-])c1`, the MIC (Candida tropicalis [1]) was > 500 µM, the MIC (Staphylococcus aureus [2]) was 62.5 µM (≈ 25.3 µg/mL) and the MIC [3] was > 500 µM. The IC50 (CHO-K1) was 55 µM, the MIC (Candida tropicalis [4]) was > 500 µM and the MIC (Nakaseomyces glabratus [5]) was > 500 µM. The MIC99 (Mycobacterium kansasii [6]) was 0.25 µM (≈ 0.101 µg/mL), the MIC99 (Mycobacterium kansasii [7]) was 1 µM (≈ 0.405 µg/mL) and the MIC (Candida albicans [8]) was > 500 µM. The MIC (Escherichia coli [9]) was > 125 µM, the MIC (Staphylococcus aureus [10]) was > 125 µM and the MIC (Staphylococcus aureus [11]) was > 125 µM. The MIC (Aspergillus fumigatus [12]) was > 500 µM, the MIC (Klebsiella pneumoniae [13]) was > 125 µM and the MIC (Lichtheimia corymbifera [14]) was > 500 µM. For the same molecule, the MIC99 (Mycobacterium kansasii [15]) was 0.25 µM (≈ 0.101 µg/mL), the MIC (Staphylococcus aureus [16]) was 62.5 µM (≈ 25.3 µg/mL) and the MIC99 (Mycobacterium kansasii [17]) was 1 µM (≈ 0.405 µg/mL). The MIC (Candida albicans [18]) was > 500 µM, the MIC (Klebsiella pneumoniae [19]) was > 125 µM and the MIC (Lichtheimia corymbifera [20]) was > 500 µM. The MIC99 [21] was 0.25 µM (≈ 0.101 µg/mL), the MIC (Enterococcus sp. [22]) was > 125 µM and the MIC (Nakaseomyces glabratus [23]) was > 500 µM. For the same molecule, the MIC99 (Mycobacterium kansasii [24]) was 1 µM (≈ 0.405 µg/mL), the MIC (Escherichia coli [25]) was > 125 µM and the MIC (Pichia kudriavzevii [26]) was > 500 µM. For the same molecule, the MIC (Pseudomonas aeruginosa [27]) was > 125 µM, the MIC [28] was > 500 µM and the MIC (Enterococcus sp. [29]) was > 125 µM. For the same molecule, the MIC [30] was 31.2 µM (≈ 12.7 µg/mL), the MIC (Klebsiella pneumoniae [31]) was > 125 µM and the MIC (Trichosporon asahii [32]) was > 500 µM. The MIC99 (Mycobacterium avium [33]) was 4 µM (≈ 1.62 µg/mL), the MIC (Pseudomonas aeruginosa [34]) was > 125 µM and the MIC (Klebsiella pneumoniae [35]) was > 125 µM. The MIC99 [36] was 0.25 µM (≈ 0.101 µg/mL), the MIC99 (Mycobacterium kansasii [37]) was 1 µM (≈ 0.405 µg/mL) and the MIC99 (Mycobacterium avium [38]) was 8 µM (≈ 3.24 µg/mL). For the same molecule, the MIC (Trichosporon asahii [39]) was > 500 µM, the MIC (Pichia kudriavzevii [40]) was > 500 µM and the MIC [41] was 31.2 µM (≈ 12.7 µg/mL). The MIC (Aspergillus fumigatus [42]) was > 500 µM.
